Test results taken from patent US6492365B1, “Microsomal triglyceride transfer protein” (Bristol-Myers Squibb Company, priority 1992, dated 2002).
Structures can show the parent of a compound that is named as a salt.

Target: T1, bovine MTP (Bos taurus, UniProt P55156)
T1 construct: with about 50-200 ng purified MTP in the well of a 96-well plate; from tissue; host or cells: bovine liver
T1 sequence (P55156 12-887): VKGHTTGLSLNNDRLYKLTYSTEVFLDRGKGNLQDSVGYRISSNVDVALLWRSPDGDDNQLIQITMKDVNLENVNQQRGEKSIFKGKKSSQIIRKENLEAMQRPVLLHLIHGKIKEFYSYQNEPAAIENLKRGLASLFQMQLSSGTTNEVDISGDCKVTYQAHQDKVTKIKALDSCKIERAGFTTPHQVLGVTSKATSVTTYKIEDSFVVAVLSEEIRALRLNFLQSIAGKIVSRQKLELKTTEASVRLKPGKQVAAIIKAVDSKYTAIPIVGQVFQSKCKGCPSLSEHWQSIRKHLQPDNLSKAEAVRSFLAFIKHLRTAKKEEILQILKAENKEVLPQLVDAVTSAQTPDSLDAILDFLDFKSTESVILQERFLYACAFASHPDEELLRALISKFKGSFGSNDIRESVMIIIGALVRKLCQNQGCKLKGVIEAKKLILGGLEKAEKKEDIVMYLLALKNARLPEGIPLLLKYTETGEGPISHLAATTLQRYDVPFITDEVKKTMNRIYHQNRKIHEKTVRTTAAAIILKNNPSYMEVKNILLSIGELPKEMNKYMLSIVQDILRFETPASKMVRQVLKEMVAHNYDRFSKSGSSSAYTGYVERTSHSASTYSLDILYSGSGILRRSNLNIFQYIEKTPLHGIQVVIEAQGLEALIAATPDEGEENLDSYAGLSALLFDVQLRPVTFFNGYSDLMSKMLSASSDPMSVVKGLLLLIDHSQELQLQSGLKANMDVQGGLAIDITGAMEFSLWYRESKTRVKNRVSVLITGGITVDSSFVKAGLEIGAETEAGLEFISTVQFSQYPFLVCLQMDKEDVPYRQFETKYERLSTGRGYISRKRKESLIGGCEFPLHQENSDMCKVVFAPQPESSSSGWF
T1 sequence (P05307 21-510 partner): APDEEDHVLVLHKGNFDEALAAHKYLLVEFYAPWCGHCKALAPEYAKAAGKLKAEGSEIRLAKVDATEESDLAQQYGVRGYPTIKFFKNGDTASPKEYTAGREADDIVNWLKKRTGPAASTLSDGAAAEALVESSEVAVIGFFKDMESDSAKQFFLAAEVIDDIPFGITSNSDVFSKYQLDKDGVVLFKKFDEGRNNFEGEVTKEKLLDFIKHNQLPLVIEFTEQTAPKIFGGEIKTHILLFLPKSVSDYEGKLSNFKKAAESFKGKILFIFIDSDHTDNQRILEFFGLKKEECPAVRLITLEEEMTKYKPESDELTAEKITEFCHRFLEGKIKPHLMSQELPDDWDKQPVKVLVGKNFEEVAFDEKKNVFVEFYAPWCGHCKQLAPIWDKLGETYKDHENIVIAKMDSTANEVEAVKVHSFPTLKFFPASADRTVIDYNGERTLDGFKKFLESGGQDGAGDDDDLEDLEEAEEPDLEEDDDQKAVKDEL
Assay: MTP-catalyzed transfer of radiolabeled TG from donor HDL to acceptor LDL (primary screen)
Format: biochemical
Details: result in words
Protocol: In this screen, the rate of detectably labeled lipid (for example, NMR, ESR, radio or fluorescently labeled TG, CE, or PC) transfer from donor particles (e.g., donor membranes, vesicles, or lipoproteins) to acceptor particles (e.g., acceptor membranes, vesicles, or lipoproteins) in the presence of MTP is measured. A decrease in the observed transfer rate in the presence of an inhibitor of MTP (e.g., contained in a natural products extract or known compounds) may be used as an assay to identify and isolate inhibitors of MTP function. […]
In a typical 150 μL assay, transfer activity is determined by measuring the transfer of radiolabeled TG from [^3H]-HDL (5 μg cholesterol) donor particles to LDL (50 μg cholesterol) acceptor particles at 37° C. for three hours in 15 mM Tris, pH 7.4, 125 mM MOPS, 30 mM Na acetate, 160 mM NaCl, 2.5 mM Na2 EDTA, 0.02% NaN3, 0.5% BSA with about 50-200 ng purified MTP in the well of a 96-well plate. […] The enzyme activity is based on the percentage of TG transfer and is calculated by the following equation: [formula] […]
Using the method outlined in Example 5, MTP inhibitor compounds A and B were identified. The assay measured the bovine MTP-catalyzed rate of transport of radiolabeled TG from donor HDL to acceptor LDL. […]

inhibition of MTP-catalyzed transport of 3H-TG from HDL to LDL | Structure (SMILES)
inhibited | O=C1c2ccccc2CN1C1CCN(CCC(c2ccccc2)c2ccccc2)CC1 [compound A, 2-[1-(3,3-diphenylpropyl)-4-piperdinyl]-2,3-dihydro-3-oxo-1H-isoindole hydrochloride]
MTP inhibitor | COc1ccccc1N1CCN(CC2CC(=O)c3ccc(F)cc3C2)CC1 (centres unmarked) [compound B, 1-[3-(6-fluoro-1-tetralanyl)methyl]-4-O-methoxyphenyl piperazine]
